Data from ChEMBL document CHEMBL5244237, “Recent developments of small molecules targeting RNA m6A modulators” (Eur J Med Chem, 2020).

What was measured:
[1] = test system: MONO-MAC-6; test: Antiproliferative activity against human MONO-MAC-6 cells; assay type: functional, cell-based
[2] = target: T1, Alpha-ketoglutarate-dependent dioxygenase FTO (Homo sapiens, UniProt Q9C0B1); test: Inhibition of FTO (unknown origin) mediated m6A methylation by HPLC analysis
[3] = target: T1, Alpha-ketoglutarate-dependent dioxygenase FTO; test: Inhibition of full length human FTO expressed in Escherichia coli BL21(DE3) rosetta by HPLC analysis
[4] = target: T1, Alpha-ketoglutarate-dependent dioxygenase FTO; test: Displacement of dm6A-containing ssDNA from truncated N-terminal his-tagged human FTO (31 residues) mediated demethylation activity expressed in Escherichia coli BL21(DE3) using ssDNA (5'-ATTGTCA(dm6A)CAGCAGA-FAM-3') as substrate by fluorescence polarization assay
[5] = target: T1, Alpha-ketoglutarate-dependent dioxygenase FTO
Description: Inhibition of FTO (unknown origin) (31 to 505 residues) by LC/MS analysis

T1 sequence (Q9C0B1 whole entry): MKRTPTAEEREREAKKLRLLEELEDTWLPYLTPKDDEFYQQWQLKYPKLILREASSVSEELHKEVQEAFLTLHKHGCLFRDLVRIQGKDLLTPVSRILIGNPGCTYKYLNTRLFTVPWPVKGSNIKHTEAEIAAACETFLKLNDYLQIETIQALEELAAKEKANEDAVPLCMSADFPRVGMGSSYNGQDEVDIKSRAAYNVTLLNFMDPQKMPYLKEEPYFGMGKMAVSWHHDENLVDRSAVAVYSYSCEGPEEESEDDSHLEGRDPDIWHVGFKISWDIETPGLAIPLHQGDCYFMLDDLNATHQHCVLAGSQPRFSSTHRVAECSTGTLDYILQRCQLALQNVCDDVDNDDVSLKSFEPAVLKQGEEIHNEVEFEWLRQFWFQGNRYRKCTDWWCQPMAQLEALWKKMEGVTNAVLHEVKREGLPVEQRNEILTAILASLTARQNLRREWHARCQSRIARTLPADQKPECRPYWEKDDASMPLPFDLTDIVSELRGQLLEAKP

Cc1noc(C)c1-c1cc(Cl)c(Nc2ccccc2C(=O)NO)c(Cl)c1
IC50 [1]: 0.8 µM | IC50 [2]: 2.6 µM

O=C(O)c1ccnc(C(=O)NS(=O)(=O)c2ccc(C(F)(F)F)cc2)c1
IC50 [3]: 2.6 µM

Cc1ccc(Cl)c(Nc2ccccc2C(=O)O)c1Cl [MECLOFENAMIC ACID]
IC50 [4]: 17.4 µM

C[C@@H]1C[C@H]2O[C@@H]2/C=C\C=C\C(=O)Cc2c(Cl)c(O)cc(O)c2C(=O)O1 [RADICICOL]
IC50 [5]: 16 µM
